Reference: EP2982368A1, “Small molecule compounds displacing focal adhesion core components” (Universität Konstanz, priority 2014, dated 2016)

How the values were obtained:
GFP-FAK MEFs = assay: Cell migration assay (single cell tracking, serum-stimulated); format: cell-based, mouse; conditions: for cell velocity: serum-stimulated
Description: (§1) Image J was used to automatically quantify FAK-containing focal adhesions due to local maxima of fluorescence intensity in the GFP-channel (5 to 70 pixel). The number of cells was automatically counted in the Hoechst channel. To test reproducibility of the system 40 control wells were quantified wherein four positions for each well were imaged. […] GFP-FAK mouse embryonic fibroblasts were seeded on fibronectin and incubated for 1 h with the indicated concentrations of the small compounds, respectively. […] GFP-FAK mouse embryonic fibroblasts were seeded on fibronectin and serum-starved overnight. The indicated concentrations of Mb31 were applied for 30 min. Cells were lysed and analyzed for paxillin and FAK protein level as well as FAK Tyr397 phosphorylation. […] The purified kinase domain of FAK was incubated with increasing amounts of Mb31 for 1 h at 30°C together with poly-Glu-Tyr as a FAK substrate. […] Serum-starved GFP-FAK mouse embryonic fibroblasts were stimulated with normal growth medium and incubated for 5 h with the indicated concentrations of the small molecule compounds, respectively. Cell viability was assessed by MTT assay. […] GFP-FAK MEFs were seeded on fibronectin and serum-starved overnight. Migration was stimulated by replacing the medium with normal growth medium. Migration of single cells was tracked for 8 h in 30 min intervals. Migration was recorded from cells that were cultured without serum (A), with serum (B) or with serum in the presence of 3 µM Mb31 (C). […] (A) GFP-FAK MEFs were seeded and serum-starved as in Figure 10. Cell migration was stimulated with normal growth medium and single cells were tracked for 5 h. […] Mouse embryonic fibroblasts (MEFs) were transfected with talin-mCherry and talin dynamics analyzed in focal adhesions using fluorescence recovery after photobleaching (FRAP). […] (C) Wound closure was microscopically analyzed and evaluated using ImageJ software.
(§2) To further determine whether Mb31 interferes with cell motility, GFP-FAK MEFs were serum-stimulated and migration was quantified on a single cell basis (Figures 11 and 12). […]

NIH-v-Src fibroblasts = assay: EGF-stimulated cell migration of transformed cells; format: cell-based; conditions: 10 ng/ml EGF, tracked 6 h before and 6 h after addition
Description: as §1, §2

[1] = system: MDA-MB-231 breast cancer cells; assay: In vitro wound healing assay; format: cell-based, human; conditions: 3 µM, 25 h, serum-containing growth medium
Description: as §1, with “h. (B) Mb31 was added and the same cells were tracked for additional 5 h. (C) Mean velocities of differently treated cells were plotted over time. […] NIH-v-Src fibroblasts were seeded on 2 µg/ml FN in DMEM/0.5%BSA and stimulated with 10 ng/ml EGF or kept unstimulated.” for “h.”, “(FRAP). Cells were left untreated (A) or treated with 10 µM of Mb31 (B). In untreated cells, the mCherry intensity recovered, indicating replacement of bleached by non-bleached talin and therefore turnover of talin at focal adhesions.” for “(FRAP).”
To determine if the migration of transformed cells can be blocked by FLocker1 and related compounds, human breast carcinoma cells (MDA-MB-231) were used in in vitro wound healing assays. […] The ability of the cells to migrate and close the wound space was monitored by microscopy and quantified (Figure 18B and C).

talin = assay: Talin-mCherry fluorescence recovery after photobleaching (FRAP); format: cell-based, mouse; conditions: 10 µM
Description: Image J was used to automatically quantify FAK-containing focal adhesions due to local maxima of fluorescence intensity in the GFP-channel (5 to 70 pixel). The number of cells was automatically counted in the Hoechst channel. To test reproducibility of the system 40 control wells were quantified wherein four positions for each well were imaged. […] GFP-FAK mouse embryonic fibroblasts were seeded on fibronectin and incubated for 1 h with the indicated concentrations of the small compounds, respectively. […] GFP-FAK mouse embryonic fibroblasts were seeded on fibronectin and serum-starved overnight. The indicated concentrations of Mb31 were applied for 30 min. Cells were lysed and analyzed for paxillin and FAK protein level as well as FAK Tyr397 phosphorylation. […] The purified kinase domain of FAK was incubated with increasing amounts of Mb31 for 1 h at 30°C together with poly-Glu-Tyr as a FAK substrate. […] Cell viability was assessed by MTT assay. […] Migration was recorded from cells that were cultured without serum (A), with serum (B) or with serum in the presence of 3 µM Mb31 (C). […] Mouse embryonic fibroblasts (MEFs) were transfected with talin-mCherry and talin dynamics analyzed in focal adhesions using fluorescence recovery after photobleaching (FRAP). […] (C) Wound closure was microscopically analyzed and evaluated using ImageJ software. […]

O=[N+]([O-])C=Cc1cc(Br)cs1 [FootLocker 1, 4-bromo-2-(2-nitrovinyl)thiophene]
cell velocity after treatment of migrating cells (GFP-FAK MEFs; added after 5 h tracking, 3 µM or more, further 5 h): 0.11 µm/min | cell velocity (GFP-FAK MEFs; 2 µM): 0.11 µm/min | cell velocity (GFP-FAK MEFs; 3 µM): 0.07 µm/min | migration of EGF-stimulated cells (NIH-v-Src fibroblasts): efficiently inhibit the migration | migration of cancer cells / wound closure [1]: retarded the migration of the cancer cells | talin-associated fluorescence recovery at bleached focal adhesions (talin): did not recover
